Data on 1 molecule can be found in ChEMBL document CHEMBL5236632, “Membrane-Active Nonivamide Derivatives as Effective Broad-Spectrum Antimicrobials: Rational Design, Synthesis, and Biological Evaluation” (J Med Chem, 2022).

One series concerns Cell membrane. The series can be described thus: Induction of membrane integrity disruption in methicillin-resistant Staphylococcus aureus NCTC 10442 assessed as increase fluoresence intensity at 4 to 8 times of MIC measured for 60 mins by SYTOX Green uptake assay. It counts as subcellular.
The next series concerns Pseudomonas aeruginosa. The series can be described thus: Antibacterial activity against Pseudomonas aeruginosa ATCC 9027 assessed as inhibition of visible growth measured after 18 to 24 hrs by broth dilution method. The conditions noted are these: time 18-24 hrs. It counts as functional.
For series [1], the system named is Staphylococcus aureus. In words: Inhibition of biofilm formation Staphylococcus aureus ATCC 29213 assessed as decrease in biofilm formation at 0.39 ug/ml measured after 24 hrs by crystal violet staining assay. It counts as functional.
In series [2] the test system is Staphylococcus aureus. The series can be described thus: Inhibition of biofilm formation Staphylococcus aureus ATCC 29213 assessed as decrease in biofilm formation at 0.10 ug/ml measured after 24 hrs by crystal violet staining assay. It counts as functional.
Series [3] deals with Staphylococcus aureus. The series can be described thus: Eradication of biofilm in Staphylococcus aureus ATCC 29213 assessed as biofilm viability at 0.78 ug/ml measured after 24 hrs by crystal violet staining assay. It counts as functional. The conditions noted are these: dose 0.78 µg/ml.
For the next series, the system named is Escherichia coli. In words: Inhibition of biofilm formation Escherichia coli ATCC 25922 assessed as decrease in biofilm formation at 3.13 ug/ml measured after 24 hrs by crystal violet staining assay. It counts as functional.
The subject of series [4] is Staphylococcus aureus. In words: Displacement of BODIPY-TR-cadaverin from Staphylococcus aureus lipoteichoic acid at MIC concentration incubated for 30 mins by fluorescence based analysis.
The nature of series [5]: Selectivity ratio, HC50 for hemolytic activity in rabbit RBC to MIC for antibacterial activity against Klebsiella pneumoniae ATCC 14581. It counts as toxicity. The following applies: rabbit red blood cells.
The test system of series [6] is Staphylococcus aureus. In words: Antibacterial activity against methicillin-resistant Staphylococcus aureus NCTC 10442 assessed as inhibition of visible growth measured after 18 to 24 hrs in presence of 24.3 ug/ml Mg2+ by broth dilution method. It counts as functional. The following applies: time 18-24 hrs. (Dilution methods test growth across graded concentrations, often in twofold steps.)

≈ marks a conversion by molar mass, not a printed value. Calls of active or inactive are those of the source. The rule behind the calls is not given here.

A word on the MIC: it is the least concentration at which growth counts as inhibited. One may read the inhibition as the relative decrease from the control value, in per cent.

On to `CCCCCCCCC(=O)NCc1ccc(OCCCCCCNC(=N)N)c(OCCCCCCNC(=N)N)c1`, for which the outcome in the series with Cell membrane was Active. In addition, the values for the MIC in the series with Pseudomonas aeruginosa and in the series with Staphylococcus aureus [6] were 6.25 µg/mL (≈ 11.1 µM) and 0.39 µg/mL, respectively. Besides, the inhibition at 0.39 µg/mL in the series on Staphylococcus aureus [1] was 97.8%. The inhibition at 0.1 µg/mL in the series on Staphylococcus aureus [2] was 34.1%. Moreover, the figures for the Activity in the series with Staphylococcus aureus [3] and in the series with Staphylococcus aureus [4] were 64.77% and 10.2%, respectively. Also, the inhibition at 3.13 µg/mL with Escherichia coli was 106%. Besides, the selectivity ratio in series [5] was 21.6.
